Experimental data as given in patent US7541446B2, “Tet repressor-based transcriptional regulatory proteins” (Tet Systems Holding GmbH & Co. KG, priority 1999, dated 2009).

What was measured:
Type in all cases: cell-based
[1] = test system: GFP controlled by a tTA/rtTA responsive promoter; experiment: rtTA dependent GFP fluorescence in S. cerevisiae; conditions: for basal activity (GFP fluorescence in the absence of inducer): excitation 490 nm, emission 512 nm
Text: Thus, a plasmid, designated pCM190GFP+, was constructed which contains the following elements: • the coding sequence for GFP controlled by a tTA/rtTA responsive promoter; • a tTA/rtTA encoding sequence that is constitutively expressed; • the URA3 marker that allows selection in appropriate yeast strains; • the replication function of the 2μ episome of S. cerevisiae. Unique endonuclease cleavage sites allow for the removal of the TetR, the activation domain, or the entire tTA encoding sequences, typically replaced by pools of mutagenized alleles obtained as described previously (Leung et al., 1989).
The gene encoding GFP was cloned into the multiple cloning site of pCM190 (Gari et al., 1997) to serve as an indicator of rtTA activity, yielding plasmid pCM190GFP+. The TetR portion of tTA was amplified for mutagenesis with two oligonucleotide primers, 5′-[…] (SEQ ID NO:46), and 5′-[…] (SEQ ID NO:47), from the vector pCM190 as described (Leung et al., 1989). The PCR-fragments and pCM190-GFP+ were restricted with XbalI and BsiWI and purified. The PCR-fragments and the vector were then ligated and transformed into E. coli DH5α. Several thousand E. coli clones were co-cultured, and their plasmid pools were prepared and transformed into S. cerevisiae using the LiAc-method (Ito et al., 1983). […]
Accordingly, the resulting uracil-prototroph yeast clones were replica plated on minimal medium without uracil containing either Tc and/or Dox and scored after growth for two to three days at 30° C. using long wavelength UV-light to excite GFP fluorescence. […] The GFP fluorescence is shown on a logarithmic scale on the left axis. Fluorescence intensities are shown for each transactivator in the absence of inducer, in the presence of 10 μg/ml of Tc, and/or in the presence of 10 μg/ml of Dox. […]
S. cerevisiae strains containing rtTA-34R, rtTA-44R and a GFP^31 strain, as well as strains containing the original tTA and rtTA were grown overnight in minimal medium. […] The light emission of these cells was scored in a fluorimeter using an excitation wavelength of 490 nm and recording emission at 512 nm. […]

[2] = test system: Ptet-luciferase expression unit; experiment: Dox dependent luciferase activity in stably transfected HeLa cells (X1/6-34R-FFFF, HR5-CL11); conditions: X1/6-34R-FFFF or HR5-CL11
Text: The coding sequence of rTetR-34R was fused with a DNA encoding four minimal activation domains (FFFF)(Baron et al., 1997) by insertion into a proper pUHD vector to generate plasmid […]. HeLa cell line X1/6 was transfected with plasmid pUHrT5 1-1 carrying the rtTA-34R-FFFF gene under the control of PhCMv. The resulting HeLa cell line X1/6-34R-FFFF contains, in addition, the Ptet-luciferase expression unit in a “silent but activatable” locus.
Cell lines derived from various clones that contain pUHrT51-1 stably inserted into the genome where it is constitutively expressed were isolated via hygromycin-B selection and analyzed for Dox dependent luciferase activity. […] This is most likely due to the residual affinity between rtTA and tetO.

[3] = test system: luciferase reporter construct pUHC13-3; experiment: Doxycycline-dependent regulation of luciferase in HeLa cell lines stably producing the transactivator, reporter pUHC13-3 transiently transfected
Text: In order to generate cell lines that maintain the plasmid episomally and thus produce the transactivator over extended periods of time, the transcription unit containing the rtTA-34R coding sequence controlled by the hCMV promoter was inserted into […] (Invitrogen, Carlsbad, USA) from which the RSV promoter had been excised. […] HeLa cells were transfected with the plasmid pCEP4-rtTA-34R, and clones isolated via G418 selection. Clones stably producing the transactivator were selected and tested for their ability to activate transcription from the transiently transfected luciferase reporter construct pUHC13-3 in the presence and absence of Dox.
Upon addition of 5 μg/ml of Dox, luciferase activity is induced up to 600 fold. In comparison to the HeLa cell line HR5 harboring chromosomal copies of the rtTA gene (Gossen et al., 1995), the background level is reduced. […] This leads to a several hundred fold induction of gene expression in the case of the rtTA-34R clones whereas in HR5 cells rtTA achieves only a 20 to 30 fold induction under these conditions.

[4] = test system: luciferase gene controlled by Ptet; experiment: rtTA-dependent luciferase expression in transiently cotransfected HeLa cells (pUHC13-3); conditions: for reverse phenotype: transient expression, luciferase; for induction of luciferase activity compared to rtTA: 5 μg/ml Tc or Dox
Method: rtTA-34R and rtTA-44R were then recloned into pUHD15-1 (Gossen & Bujard, 1992), replacing the respective portions of tTA. HeLa cells were transiently cotransfected with plasmids pUHC13-3, encoding the luciferase gene controlled by Ptet (Gossen & Bujard, 1992), and the pUHD15-1 plasmids containing the genes of the respective transactivators. Luciferase activities were measured in absence (light column) and presence of 5 μg/ml of the effectors tetracycline (Tc, light grey) or doxycycline (Dox, dark grey). On the X axis, (−) corresponds to control HeLa cells into which no DNA was transferred. […] The increased regulation factor observed results from both a lower basal and a higher induced activity.
To obtain additional information about the role of the mutated residues, we separated the mutations at positions 19 and 56 from those at 139, 148 and 179. The resulting proteins are called rtTA-1956R and rtTA-148179R. The activation potential of rtTA-1956R and rtTA-148179R was assessed in transient expression experiments. Plasmids encoding the respective rtTA variants were cotransfected with the pUHC13-3 luciferase indicator plasmid into HeLa cells and the luciferase activity was determined.

[5] = cell line HeLa HR5 (Tet on), chromosomal copies of the rtTA gene
[6] = cell line HeLa 0.34R-16, episomal pCEP4-rtTA-34R
[7] = cell line HeLa 0.34R-33, episomal pCEP4-rtTA-34R
[8] = cell line HeLa 0.34R-36, episomal pCEP4-rtTA-34R

rtTA: original reverse tetracycline controlled transactivator (Gossen et al., 1995), parent, SEQ ID NO: 22/23 [reference compound]
induction factor of expression ([1]; GFP fluorescence, Tc or Dox 10 μg/ml): 40 fold
induction of luciferase activity by Dox [2]: about 700 fold
luciferase activity in the absence of Dox [2]: significant background luciferase activity
factor of induction ([3]; cell line HeLa HR5 (Tet on)): 27
Luciferase activity (RLU/μg protein) with Dox [3, 5]: 920 ± 170 RLU/μg protein
Luciferase activity (RLU/μg protein) without Dox [3, 5]: 26400 ± 4030 RLU/μg protein

rtTA-1956R: rtTA sequence variant E19G, A56P; aa = SEQ ID NO:7
reverse phenotype [4]: sufficient for the reverse phenotype

rtTA-44R: rtTA sequence variant T26A, D95G; aa = SEQ ID NO:13
basal activity (GFP fluorescence in the absence of inducer) [1]: clearly lower as compared to rtTA
induction of luciferase activity compared to rtTA [4]: not improved over rtTA
reverse phenotype [4]: shows a reverse phenotype

rtTA-34R: rtTA sequence variant E19G, A56P, H139H (silent), D148E, H179R; aa = SEQ ID NO:2
basal activity (GFP fluorescence in the absence of inducer) [1]: clearly lower as compared to rtTA
induction of luciferase activity compared to rtTA [4]: even higher induction of luciferase activity as compared to rtTA
reverse phenotype [4]: improved reverse phenotype
induced level of luciferase in comparison to HR5 ([3]; 5 μg/ml of Dox, rtTA-34R HeLa clones): significantly elevated
induction of luciferase activity ([3]; 5 μg/ml of Dox, rtTA-34R HeLa clones, rtTA in HR5 cells): up to 600 fold
factor of induction ([3]; cell line HeLa 0.34R-16): 600
Luciferase activity (RLU/μg protein) with Dox [3, 6]: 540 ± 50 RLU/μg protein
Luciferase activity (RLU/μg protein) without Dox [3, 6]: 323600 ± 69470 RLU/μg protein
factor of induction ([3]; cell line HeLa 0.34R-33): 200
Luciferase activity (RLU/μg protein) with Dox [3, 7]: 360 ± 140 RLU/μg protein
Luciferase activity (RLU/μg protein) without Dox [3, 7]: 74620 ± 3230 RLU/μg protein
factor of induction ([3]; cell line HeLa 0.34R-36): 200
Luciferase activity (RLU/μg protein) with Dox [3, 8]: 430 ± 50 RLU/μg protein
Luciferase activity (RLU/μg protein) without Dox [3, 8]: 87000 ± 7820 RLU/μg protein
background level of luciferase in comparison to HR5 ([3]; without Dox, rtTA-34R HeLa clones): reduced
